Assay results as given in paper PMC11882969 (Nature Communications, 2025).
Where “and” joins values, the source holds several entries; their conditions need not be identical. Equal values may be shown once. Read-outs that look alike come from different tables or passages of the source.

Molecular target: hCB1 (Homo sapiens, UniProt P21554)
Assay: bioSensAll ebBRET signaling profiling, hCB1
Format: cell-based
Set-up: host or cells: HEK293SL cells, transient PEI transfection
Conditions: for Gi1 hCB1 response: Gi1 biosensor; for Gi1 hCB1 / GoB hCB1: single replicate values, FigS6a; for Emax [95% CI]: normalized to CP-55,940; for EC50: read-out: EC50 [95% CI]
[1] = Log [Compound] (M) -13, individual replicate values

Sequence of hCB1 (P21554 whole entry): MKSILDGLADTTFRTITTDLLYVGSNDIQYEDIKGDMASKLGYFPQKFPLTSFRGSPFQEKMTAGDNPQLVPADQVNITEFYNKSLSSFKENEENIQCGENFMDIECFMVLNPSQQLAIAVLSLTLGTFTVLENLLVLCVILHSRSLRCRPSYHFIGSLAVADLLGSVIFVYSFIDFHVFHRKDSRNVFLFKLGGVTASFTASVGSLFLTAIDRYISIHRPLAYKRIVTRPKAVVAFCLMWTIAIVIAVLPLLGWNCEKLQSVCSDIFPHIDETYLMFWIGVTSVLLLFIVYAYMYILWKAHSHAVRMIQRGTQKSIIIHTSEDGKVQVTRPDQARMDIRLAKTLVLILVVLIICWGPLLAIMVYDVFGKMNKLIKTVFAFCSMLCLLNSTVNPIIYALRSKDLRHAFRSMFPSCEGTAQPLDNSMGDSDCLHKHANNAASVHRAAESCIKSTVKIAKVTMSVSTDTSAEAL

Structure (SMILES): Cc1cc(C(=O)N2CC3(CCC3)[C@H]2[C@H]2CCCO2)nn1-c1cccc(C(F)(F)F)c1 [‘1651]
- Gi1 hCB1 response (Log [Compound] (M) -4.22186): 137.59
- Gi1 hCB1 response (Log [Compound] (M) -4.63927): 96.9225
- Gi1 hCB1 response (Log [Compound] (M) -5.47381): 59.4112
- Gi1 hCB1 response (Log [Compound] (M) -5.89285): 34.5455
- Gi1 hCB1 response (Log [Compound] (M) -6.31878): 22.4595
- Gi1 hCB1 response (Log [Compound] (M) -6.72585): 13.9098
- Gi1 hCB1 response (Log [Compound] (M) -7.14267): 3.39
- Gi1 hCB1 response (Log [Compound] (M) -7.55284): 4.644
- Gi1 hCB1 response (Log [Compound] (M) -8): -4.488
- Gi1 hCB1 response (Log [Compound] (M) -8.22186): -3.346
- Gi1 hCB1 response (Log [Compound] (M) -8.39794): -8.628
- Gi1 hCB1 response (Log [Compound] (M) -8.68787): -2.138
- Gi1 hCB1 response (Log [Compound] (M) -9.15521): 13.7307
- Gi1 hCB1 response (Log [Compound] (M) -9.61989): 0.5704
- Gi1 hCB1 response (Log [Compound] (M) -10.0969): -10.7993
- Gi1 hCB1 response (Log [Compound] (M) -10.5529): 1.622
- Gi1 hCB1 response (Log [Compound] (M) -11.0177): 3.525
- Gi1 hCB1 response (Log [Compound] (M) -11.4949): -1.466
- Gi1 hCB1 response (Log [Compound] (M) -11.9208): -11.3141
- Gi1 hCB1 response (Log [Compound] (M) -12.3979): -0.1682
- Gi1 hCB1 response (Log [Compound] (M) -12.8861): 6.054
- Gi1 hCB1 response [1]: -5.092 and 7.285
- Gi1 hCB1 (Log [Compound] (M) -4.22186): 86.9769
- GoB hCB1 (Log [Compound] (M) -4.22186): 103.232
- Gi1 hCB1 (Log [Compound] (M) -4.63927): 76.9098
- GoB hCB1 (Log [Compound] (M) -4.63927): 73.1818
- Gi1 hCB1 (Log [Compound] (M) -5.05788): 64.2374
- GoB hCB1 (Log [Compound] (M) -5.05788): 61.4566
- Gi1 hCB1 (Log [Compound] (M) -5.47381): 51.5496
- GoB hCB1 (Log [Compound] (M) -5.47381): 47.4476
- Gi1 hCB1 (Log [Compound] (M) -5.89285): 27.4072
- GoB hCB1 (Log [Compound] (M) -5.89285): 30.9928
- Gi1 hCB1 (Log [Compound] (M) -6.31878): 15.521
- GoB hCB1 (Log [Compound] (M) -6.31878): 20.7963
- Gi1 hCB1 (Log [Compound] (M) -6.72585): 7.211
- GoB hCB1 (Log [Compound] (M) -6.72585): 12.2902
- Gi1 hCB1 (Log [Compound] (M) -7.14267): 2.849
- GoB hCB1 (Log [Compound] (M) -7.14267): 6.553
- Gi1 hCB1 (Log [Compound] (M) -7.55284): 1.862
- GoB hCB1 (Log [Compound] (M) -7.55284): 3.478
- Gi1 hCB1 (Log [Compound] (M) -8): 1.7386
- GoB hCB1 (Log [Compound] (M) -8): 4.539
- Gi1 hCB1 (Log [Compound] (M) -8.22186): 1.384
- GoB hCB1 (Log [Compound] (M) -8.22186): -0.5679
- Gi1 hCB1 (Log [Compound] (M) -8.39794): 3.142
- GoB hCB1 (Log [Compound] (M) -8.39794): 1.554
- Gi1 hCB1 (Log [Compound] (M) -8.68787): 2.895
- GoB hCB1 (Log [Compound] (M) -8.68787): -1.036
- Gi1 hCB1 (Log [Compound] (M) -9.15521): 0.4282
- GoB hCB1 (Log [Compound] (M) -9.15521): -2.079
- Gi1 hCB1 (Log [Compound] (M) -9.61989): 2.402
- GoB hCB1 (Log [Compound] (M) -9.61989): 0.2413
- Gi1 hCB1 (Log [Compound] (M) -10.0969): 1.754
- GoB hCB1 (Log [Compound] (M) -10.0969): 3.298
- Gi1 hCB1 (Log [Compound] (M) -10.5529): 4.329
- GoB hCB1 (Log [Compound] (M) -10.5529): 1.32
- Gi1 hCB1 (Log [Compound] (M) -11.0177): 1.137
- GoB hCB1 (Log [Compound] (M) -11.0177): 2.867
- Gi1 hCB1 (Log [Compound] (M) -11.4949): 1.492
- GoB hCB1 (Log [Compound] (M) -11.4949): 0.4571
- Gi1 hCB1 (Log [Compound] (M) -11.9208): 0.7057
- GoB hCB1 (Log [Compound] (M) -11.9208): 3.784
- Gi1 hCB1 (Log [Compound] (M) -12.3979): 3.419
- GoB hCB1 (Log [Compound] (M) -12.3979): 6.338
- Gi1 hCB1 (Log [Compound] (M) -12.8861): 4.113
- GoB hCB1 (Log [Compound] (M) -12.8861): 5.3306
- Gi1 hCB1 (Log [Compound] (M) -13): -0.9593 and 2.509
- GoB hCB1 (Log [Compound] (M) -13): 4.899 and 2.867
- pEC50 [95% CI] (hCB1 Gi1): 5.5 [5.4 – 5.6]
- Emax [95% CI] (hCB1 Gi1): 89 [84 – 94]
- pEC50 [95% CI] (hCB1 GoB): 4.7 [4.1 – 5.4]
- Emax [95% CI] (hCB1 GoB): 152 [94 – 208]
- EC50 (hCB1 Gi1): 3.03 µM
- EC50 (hCB1 GoB): 19.8 µM

Structure (SMILES): COc1cccc(C(NC(=O)c2cc(C)n(-c3cccc(C(F)(F)F)c3)n2)c2ccco2)c1 (centres unmarked) [‘1087]
- Gi1 hCB1 response (Log [Compound] (M) -4.22186): 111.515
- Gi1 hCB1 response (Log [Compound] (M) -4.63927): -38.2838
- Gi1 hCB1 response (Log [Compound] (M) -5.05788): -49.9669
- Gi1 hCB1 response (Log [Compound] (M) -5.47381): 11.0449
- Gi1 hCB1 response (Log [Compound] (M) -5.89285): -12.478
- Gi1 hCB1 response (Log [Compound] (M) -6.31878): -17.0885
- Gi1 hCB1 response (Log [Compound] (M) -6.72585): -9.994
- Gi1 hCB1 response (Log [Compound] (M) -7.14267): -10.3741
- Gi1 hCB1 response (Log [Compound] (M) -7.55284): 10.754
- Gi1 hCB1 response (Log [Compound] (M) -8): -2.496
- Gi1 hCB1 response (Log [Compound] (M) -8.22186): 59.7022
- Gi1 hCB1 response (Log [Compound] (M) -8.39794): 12.6788
- Gi1 hCB1 response (Log [Compound] (M) -8.68787): -1.377
- Gi1 hCB1 response (Log [Compound] (M) -9.15521): -24.5192
- Gi1 hCB1 response (Log [Compound] (M) -9.61989): 86.3361
- Gi1 hCB1 response (Log [Compound] (M) -10.0969): -14.3804
- Gi1 hCB1 response (Log [Compound] (M) -10.5529): -6.726
- Gi1 hCB1 response (Log [Compound] (M) -11.0177): 6.211
- Gi1 hCB1 response (Log [Compound] (M) -11.4949): 9.702
- Gi1 hCB1 response (Log [Compound] (M) -11.9208): -11.0679
- Gi1 hCB1 response (Log [Compound] (M) -12.3979): -4.555
- Gi1 hCB1 response (Log [Compound] (M) -12.8861): -5.652
- Gi1 hCB1 response [1]: -4.331 and 29.5096
- Gi1 hCB1 (Log [Compound] (M) -4.22186): -6.833
- GoB hCB1 (Log [Compound] (M) -4.22186): -8.4986
- Gi1 hCB1 (Log [Compound] (M) -4.63927): -6.864
- GoB hCB1 (Log [Compound] (M) -4.63927): -10.0272
- Gi1 hCB1 (Log [Compound] (M) -5.05788): -7.357
- GoB hCB1 (Log [Compound] (M) -5.05788): -7.545
- Gi1 hCB1 (Log [Compound] (M) -5.47381): -6.895
- GoB hCB1 (Log [Compound] (M) -5.47381): -9.02
- Gi1 hCB1 (Log [Compound] (M) -5.89285): -4.166
- GoB hCB1 (Log [Compound] (M) -5.89285): -5.891
- Gi1 hCB1 (Log [Compound] (M) -6.31878): -2.0693
- GoB hCB1 (Log [Compound] (M) -6.31878): -3.409
- Gi1 hCB1 (Log [Compound] (M) -6.72585): -1.1443
- GoB hCB1 (Log [Compound] (M) -6.72585): -0.5859
- Gi1 hCB1 (Log [Compound] (M) -7.14267): 2.34
- GoB hCB1 (Log [Compound] (M) -7.14267): -0.6579
- Gi1 hCB1 (Log [Compound] (M) -7.55284): 3.064
- GoB hCB1 (Log [Compound] (M) -7.55284): 2.687
- Gi1 hCB1 (Log [Compound] (M) -8): 2.926
- GoB hCB1 (Log [Compound] (M) -8): 1.8778
- Gi1 hCB1 (Log [Compound] (M) -8.22186): 2.463
- GoB hCB1 (Log [Compound] (M) -8.22186): -2.043
- Gi1 hCB1 (Log [Compound] (M) -8.39794): -1.175
- GoB hCB1 (Log [Compound] (M) -8.39794): 1.572
- Gi1 hCB1 (Log [Compound] (M) -8.68787): 1.6
- GoB hCB1 (Log [Compound] (M) -8.68787): -4.093
- Gi1 hCB1 (Log [Compound] (M) -9.15521): 2.463
- GoB hCB1 (Log [Compound] (M) -9.15521): -0.01046
- Gi1 hCB1 (Log [Compound] (M) -9.61989): 1.8311
- GoB hCB1 (Log [Compound] (M) -9.61989): 0.3672
- Gi1 hCB1 (Log [Compound] (M) -10.0969): 1.353
- GoB hCB1 (Log [Compound] (M) -10.0969): 4.054
- Gi1 hCB1 (Log [Compound] (M) -10.5529): 3.666
- GoB hCB1 (Log [Compound] (M) -10.5529): 3.3884
- Gi1 hCB1 (Log [Compound] (M) -11.0177): 2.525
- GoB hCB1 (Log [Compound] (M) -11.0177): 3.856
- Gi1 hCB1 (Log [Compound] (M) -11.4949): 4.128
- GoB hCB1 (Log [Compound] (M) -11.4949): 2.507
- Gi1 hCB1 (Log [Compound] (M) -11.9208): 3.265
- GoB hCB1 (Log [Compound] (M) -11.9208): 1.033
- Gi1 hCB1 (Log [Compound] (M) -12.3979): 2.386
- GoB hCB1 (Log [Compound] (M) -12.3979): 3.442
- Gi1 hCB1 (Log [Compound] (M) -12.8861): 2.001
- GoB hCB1 (Log [Compound] (M) -12.8861): 2.363
- Gi1 hCB1 (Log [Compound] (M) -13): 2.402 and 0.3203
- GoB hCB1 (Log [Compound] (M) -13): 4.845 and 3.406
